Laboratory results as given in ChEMBL document CHEMBL1201862, “PubChem BioAssay data set” (2004).
Active and inactive are the calls of the source.

Columns and labels:
[1] = Luminescence Cell-Based Dose Response to Identify Activators of Luciferase Translation or Activity in H4-C Neuroglioblastoma Cells. [Related pubchem assays: 1829 (Project Summary), 1814 (Primary HTS)]; type: functional
[2] = Luminescence Cell-Based Dose Response to Identify Activators of 5'UTR Stem-Loop Driven Prion Protein mRNA Translation in H4-C Neuroglioblastoma Cells. [Related pubchem assays: 1829 (Project Summary), 1814 (Primary HTS)]; type: functional
H4 = assay: Luminescence Cell-Based Dose Response HTS to Identify Activators of 5'UTR Stem-Loop Driven Prion Protein mRNA Translation in H4 Neuroglioblastoma Cells. [Related pubchem assays: 1829 (Project Summary), 1814 (Primary HTS)]; type: functional; conditions: Homo sapiens
[3] = Luminescence Cell-Based Dose Confirmation to Identify Activators of 5'UTR Stem-Loop Driven Alpha-Synuclein mRNA Translation in H4 Neuroglioblastoma Cells. [Related pubchem assays: 1829 (Project Summary), 1814 (Primary HTS)]; type: functional
[4] = Luminescence Cell-Based Dose Confirmation HTS to Identify Activators of 5'UTR Stem-Loop Driven Alpha-Synuclein mRNA Translation in H4 Neuroglioblastoma Cells. [Related pubchem assays: 1829 (Project Summary), 1814 (Primary HTS)]; type: functional
[5] = Luminescence Cell-Based Dose Response HTS to Identify Activators of Luciferase Translation or Activity in H4 […] Cells. [Related pubchem assays: 1829 (Project Summary), 1814 (Primary HTS)]; type: functional
[6] = target: Protein-tyrosine kinase 2-beta (Homo sapiens, UniProt Q14289);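 note: potency of inhibitors of PYK2 kinase phosphorylation of poly-GT substrate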
Chain of Protein-tyrosine kinase 2-beta (Q14289 whole entry): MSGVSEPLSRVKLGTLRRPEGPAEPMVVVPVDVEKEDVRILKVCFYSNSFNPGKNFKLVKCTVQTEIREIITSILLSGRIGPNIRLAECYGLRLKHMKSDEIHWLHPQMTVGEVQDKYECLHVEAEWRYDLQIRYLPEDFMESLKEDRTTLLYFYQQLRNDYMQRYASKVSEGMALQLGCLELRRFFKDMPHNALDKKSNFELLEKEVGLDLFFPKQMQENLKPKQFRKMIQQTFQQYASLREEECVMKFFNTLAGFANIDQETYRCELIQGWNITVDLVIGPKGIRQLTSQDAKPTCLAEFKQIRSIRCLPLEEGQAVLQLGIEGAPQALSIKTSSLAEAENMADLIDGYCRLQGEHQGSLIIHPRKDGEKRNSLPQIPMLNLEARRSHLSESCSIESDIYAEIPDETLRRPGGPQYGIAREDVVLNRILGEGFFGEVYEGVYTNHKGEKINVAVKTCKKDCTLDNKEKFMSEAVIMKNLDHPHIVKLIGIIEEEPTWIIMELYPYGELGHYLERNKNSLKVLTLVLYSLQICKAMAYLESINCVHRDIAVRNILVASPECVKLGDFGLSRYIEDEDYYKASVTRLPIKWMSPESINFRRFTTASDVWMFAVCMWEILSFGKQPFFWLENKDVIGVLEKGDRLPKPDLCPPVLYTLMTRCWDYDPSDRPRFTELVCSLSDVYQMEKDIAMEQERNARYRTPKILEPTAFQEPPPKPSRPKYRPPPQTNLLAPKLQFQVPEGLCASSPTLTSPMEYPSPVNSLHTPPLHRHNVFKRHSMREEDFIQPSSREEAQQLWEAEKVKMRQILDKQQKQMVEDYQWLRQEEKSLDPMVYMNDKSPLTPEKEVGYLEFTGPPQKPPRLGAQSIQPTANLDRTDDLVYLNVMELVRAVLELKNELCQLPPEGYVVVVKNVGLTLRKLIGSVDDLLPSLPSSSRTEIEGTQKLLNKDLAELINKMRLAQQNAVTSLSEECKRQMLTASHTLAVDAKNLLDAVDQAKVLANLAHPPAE

[7] = HEK293 Cytotoxicity Assay Measured in Cell-Based System Using Plate Reader - 7071-01_Inhibitor_Dose_CherryPick_Activity_Set2.; type: functional
HEK293 = assay: viability loss in HEK293T cells – cell-based, ATP luminescence, cherry-pick samples, cytotoxicity control, dose response (AID 687005); type: functional; conditions: Homo sapiens;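 note: cells exposed to compound for 48 hours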
[8] = target: T1, RNA-binding protein pos-1 (Caenorhabditis elegans, UniProt G5EF15); assay: disruptors of C. elegans POS-1 RNA interaction – biochemical, fluorescence polarization, dose response (AID 1964);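 note: purified POS-1 fused to maltose binding protein made in E. coli; potency of compounds blocking POS-1 binding to fluorescent RNA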
T1 sequence (G5EF15 whole entry): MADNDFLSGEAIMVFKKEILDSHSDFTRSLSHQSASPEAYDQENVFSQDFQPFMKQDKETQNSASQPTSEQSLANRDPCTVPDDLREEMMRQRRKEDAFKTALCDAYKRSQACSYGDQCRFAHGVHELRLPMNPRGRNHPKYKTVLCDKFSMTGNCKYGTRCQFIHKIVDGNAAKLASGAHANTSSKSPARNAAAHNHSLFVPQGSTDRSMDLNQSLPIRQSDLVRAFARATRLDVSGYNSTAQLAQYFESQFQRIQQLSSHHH

[9] = target: T2, Zinc finger protein mex-5 (Caenorhabditis elegans, UniProt Q9XUB2); assay: potency of MEX-5 RNA-binding blockers – biochemical, C. elegans, fluorescence polarization, dose response (AID 1960)
T2 sequence (Q9XUB2 whole entry): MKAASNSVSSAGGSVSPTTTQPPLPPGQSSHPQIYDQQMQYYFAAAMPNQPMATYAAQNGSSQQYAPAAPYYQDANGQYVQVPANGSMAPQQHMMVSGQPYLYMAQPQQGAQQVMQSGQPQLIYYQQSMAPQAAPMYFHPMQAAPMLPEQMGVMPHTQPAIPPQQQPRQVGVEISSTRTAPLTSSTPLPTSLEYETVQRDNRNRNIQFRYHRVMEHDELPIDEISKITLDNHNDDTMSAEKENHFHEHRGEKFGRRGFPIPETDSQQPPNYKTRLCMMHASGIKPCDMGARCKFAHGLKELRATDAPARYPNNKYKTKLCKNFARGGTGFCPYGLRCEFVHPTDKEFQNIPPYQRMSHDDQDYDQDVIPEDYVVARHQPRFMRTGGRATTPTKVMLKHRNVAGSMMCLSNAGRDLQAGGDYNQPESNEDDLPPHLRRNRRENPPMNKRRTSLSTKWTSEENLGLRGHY

Kallikrein-7 = Kallikrein-7 (Homo sapiens, UniProt P49862); assay: Fluorescence Intensity-based biochemical primary high throughput dose response assay to identify activators of kallikrein-7 (K7) zymogen.
Chain of Kallikrein-7 (P49862 whole entry): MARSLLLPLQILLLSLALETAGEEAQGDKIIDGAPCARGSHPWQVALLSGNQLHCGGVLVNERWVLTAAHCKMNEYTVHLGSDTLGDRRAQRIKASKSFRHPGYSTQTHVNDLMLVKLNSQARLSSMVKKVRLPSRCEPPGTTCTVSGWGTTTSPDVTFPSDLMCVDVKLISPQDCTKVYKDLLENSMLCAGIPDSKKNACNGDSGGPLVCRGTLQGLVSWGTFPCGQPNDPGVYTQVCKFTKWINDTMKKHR

[10] = OVCAR8 cell viability loss – plate reader, dry powder samples, PAX8 project, dose response (AID 743197); type: functional, cell-based; conditions: OVCAR-8
[11] = blockers of HIV-1 envelope-mediated cell-cell fusion – cherry-pick, dose response (AID 652057); type: functional, cell-based
Paired box protein Pax-8 = Paired box protein Pax-8 (Homo sapiens, UniProt Q06710); assay: PAX8 transcriptional activity inhibition in RMG-I – RMG-I cells, luciferase, cherry-pick, dose response (AID 687027); type: functional, cell-based;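 note: luciferase reporter driven by Pax8 target thyroperoxidase promoter measured by SteadyGlo luminescence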
Chain of Paired box protein Pax-8 (Q06710 whole entry): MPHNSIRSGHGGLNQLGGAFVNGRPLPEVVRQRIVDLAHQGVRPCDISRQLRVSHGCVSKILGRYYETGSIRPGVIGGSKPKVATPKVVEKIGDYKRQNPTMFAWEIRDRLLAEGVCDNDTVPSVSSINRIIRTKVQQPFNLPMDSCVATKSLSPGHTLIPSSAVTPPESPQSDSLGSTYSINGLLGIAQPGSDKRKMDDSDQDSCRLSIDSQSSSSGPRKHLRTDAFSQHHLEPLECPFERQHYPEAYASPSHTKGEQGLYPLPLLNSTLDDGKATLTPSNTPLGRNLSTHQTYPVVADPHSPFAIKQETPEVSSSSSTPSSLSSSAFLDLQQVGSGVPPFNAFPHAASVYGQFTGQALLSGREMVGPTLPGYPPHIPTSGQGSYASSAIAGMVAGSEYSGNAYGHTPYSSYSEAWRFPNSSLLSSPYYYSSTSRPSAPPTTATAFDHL

[12] = OVCAR-3 cell viability loss – plate reader, dry powder samples, PAX8 inhibitor project, dose response (AID 743044); type: functional, cell-based
[13] = HIV-1 AD8 envelope cell-cell fusion blockers – cherry-pick, dose response (AID 652062); type: functional, cell-based;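 note: luciferase signal from cell-cell fusion driven by HIV-1 clade B AD8 Env; potency is for inhibitors of fusion seen as a drop in luminescence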
Cytochrome P450 3A4 = Cytochrome P450 3A4 (Homo sapiens, UniProt P08684); conditions: Potency;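 note: confirmatory qHTS run detecting inhibitors and substrates of CYP3A4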
Chain of Cytochrome P450 3A4 (P08684 whole entry): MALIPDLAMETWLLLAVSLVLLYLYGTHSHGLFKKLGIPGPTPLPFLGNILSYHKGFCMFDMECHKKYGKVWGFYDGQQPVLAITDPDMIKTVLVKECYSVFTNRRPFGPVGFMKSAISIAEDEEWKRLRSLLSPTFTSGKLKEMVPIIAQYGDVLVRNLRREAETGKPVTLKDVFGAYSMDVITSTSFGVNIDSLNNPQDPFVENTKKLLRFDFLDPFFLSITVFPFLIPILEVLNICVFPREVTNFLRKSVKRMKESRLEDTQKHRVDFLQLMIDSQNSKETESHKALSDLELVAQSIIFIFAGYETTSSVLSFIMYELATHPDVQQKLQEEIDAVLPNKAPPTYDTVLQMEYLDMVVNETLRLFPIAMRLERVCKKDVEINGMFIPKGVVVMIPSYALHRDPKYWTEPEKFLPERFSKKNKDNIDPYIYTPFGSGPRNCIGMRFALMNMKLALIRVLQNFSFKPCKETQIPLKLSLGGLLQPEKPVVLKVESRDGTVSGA

[14] = HIV-1 Vif–A3G interaction blockers – biochemical, TR-FRET, GST-Vif 1-94, biotin-A3G peptide, dose response retest, primary screen (AID 1117319); type: functional;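 note: TR-FRET signal of purified GST-Vif binding a biotinylated A3G peptide; inhibitors lower the FRET signal by blocking Vif and A3G binding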

CCc1cc2c(O)c(-c3ccon3)c(=N)oc2cc1OC
EC50 [1]: 1.5 µM (active) | EC50 [2]: > 12 µM (not active) | EC50 (H4): 31.8 µM (active) | EC50 [3]: 0.591 µM (active) | EC50 [4]: 7.6 µM (active) | EC50 [5]: 6.58 µM (active)

N#CCSc1nc(Nc2ccc3c(c2)OCO3)c2ccccc2n1
IC50 [6]: > 69.5 µM (not active)

CCCCN1CCCCC1C(=O)Nc1c(C)cccc1C (stereo not drawn) [BUPIVACAINE]
AC50 [7]: 35.7 µM (active) | AC50 (HEK293): 35.7 µM (active)

CCN1CCN(Cc2c(O)ccc3c2O/C(=C\c2ccc(C)cc2)C3=O)CC1
EC50 [8]: 38.9 µM (active) | EC50 [9]: 111 µM (active) | EC50 (Kallikrein-7): 23.9 µM (inactive)

O=C(/C=C/c1cnc2ccccc2n1)NC12CC3CC(CC(C3)C1)C2
EC50 [1]: 0.32 µM (active) | EC50 [2]: 0.434 µM (active) | EC50 (H4): 0.921 µM (active) | EC50 [3]: 0.62 µM (active) | EC50 [5]: < 0.1 µM (active)

O=C(Nc1ccc(C(F)(F)F)cc1)Nc1ccc2c(c1)[C@@H]1C[C@H](CC(=O)N3CCc4ccccc4C3)O[C@H](CO)[C@@H]1O2
AC50 [10]: 48.6 µM (active) | AC50 [11]: 14.2 µM (active) | AC50 (Paired box protein Pax-8): 9.5 µM (active) | AC50 [12]: 34.4 µM (active) | AC50 [13]: 18.5 µM (active)

O=C(C[C@H]1CC[C@@H]2[C@H](COC[C@@H](O)CN2S(=O)(=O)c2cccc(Cl)c2)O1)Nc1ccc(-c2ccccc2)cc1
AC50 [10]: > 70 µM (inactive) | AC50 (Paired box protein Pax-8): 8.33 µM (active)

Cc1ccccc1-n1c2nc(=O)n(C)c(=O)c-2cc2ccccc21
EC50 (Kallikrein-7): 85.3 µM (inactive)

C[C@H]1CCCCO[C@H](CN(C)Cc2ccncc2)[C@@H](C)CN([C@@H](C)CO)C(=O)c2cc(NC(=O)CCCN(C)C)ccc2O1
AC50 [7]: 38.1 µM (active) | AC50 (HEK293): 38.1 µM (active)

COc1cc2c(cc1OC)-c1c(OC)c(OC)c(C=O)c3c1[C@H](C2)N(C)CC3
AC50 (Cytochrome P450 3A4): 7.94 µM (inconclusive)

CC1(C)CC(=O)c2cnc(N3CCc4ccccc4C3)nc2C1
EC50 [1]: 0.268 µM (active) | EC50 [2]: 0.284 µM (active) | EC50 [3]: 0.283 µM (active) | EC50 [5]: < 0.1 µM (inconclusive)

Cc1ccc(CC(NC(=O)c2ccccc2)C(=O)NC(C)C(=O)O)cc1 (stereo not drawn)
IC50 [14]: > 100 µM (active)
